assay: Stability of complexes at 30-80° C.; type: physicochemical; details: not given
Source text: For R-3-hydroxybutyric acid, potassium R-3-hydroxybutyrate, mixture of R-3-hydroxybutyric acid and potassium R-3-hydroxybutyrate, and R-3-hydroxybutyric acid·potassium R-3-hydroxybutyrate complex of Example 1, […]
For 3-hydroxybutyric acid, potassium 3-hydroxybutyrate, mixture of 3-hydroxybutyric acid and potassium 3-hydroxybutyrate, and 3-hydroxybutyric acid·potassium 3-hydroxybutyrate complex of Example 7, […]
For S-3-hydroxybutyric acid, potassium S-3-hydroxybutyrate, mixture of S-3-hydroxybutyric acid and potassium S-3-hydroxybutyrate, and S-3-hydroxybutyric acid·potassium S-3-hydroxybutyrate complex of Example 13, […]
For R-3-hydroxybutyric acid, calcium R-3-hydroxybutyrate, mixture of R-3-hydroxybutyric acid and calcium R-3-hydroxybutyrate, and R-3-hydroxybutyric acid·calcium R-3-hydroxybutyrate complex of Example 19, […]
For 3-hydroxybutyric acid, calcium 3-hydroxybutyrate, mixture of 3-hydroxybutyric acid and calcium 3-hydroxybutyrate, and 3-hydroxybutyric acid·calcium 3-hydroxybutyrate complex of Example 25, […]
For S-3-hydroxybutyric acid, calcium S-3-hydroxybutyrate, mixture of S-3-hydroxybutyric acid and calcium S-3-hydroxybutyrate, and S-3-hydroxybutyric acid·calcium S-3-hydroxybutyrate complex of Example 31, […]
For R-3-hydroxybutyric acid, magnesium R-3-hydroxybutyrate, mixture of R-3-hydroxybutyric acid and magnesium R-3-hydroxybutyrate, and R-3-hydroxybutyric acid·magnesium R-3-hydroxybutyrate complex of Example 37, […]
For 3-hydroxybutyric acid, magnesium 3-hydroxybutyrate, mixture of 3-hydroxybutyric acid and magnesium 3-hydroxybutyrate, and 3-hydroxybutyric acid·magnesium 3-hydroxybutyrate complex of Example 43, […]
For S-3-hydroxybutyric acid, magnesium S-3-hydroxybutyrate, mixture of S-3-hydroxybutyric acid and magnesium S-3-hydroxybutyrate, and S-3-hydroxybutyric acid·magnesium S-3-hydroxybutyrate complex of Example 49, […]
For R-3-hydroxypentanoic acid, sodium R-3-hydroxypentanoate, mixture of R-3-hydroxypentanoic acid and sodium R-3-hydroxypentanoate, and R-3-hydroxypentanoic acid·sodium R-3-hydroxypentanoate complex of Example 55, […]
For 3-hydroxypentanoic acid, sodium 3-hydroxypentanoate, mixture of 3-hydroxypentanoic acid and sodium 3-hydroxypentanoate, and 3-hydroxypentanoic acid·sodium 3-hydroxypentanoate complex of Example 61, […]
For S-3-hydroxypentanoic acid, sodium S-3-hydroxypentanoate, mixture of S-3-hydroxypentanoic acid and sodium S-3-hydroxypentanoate, and S-3-hydroxypentanoic acid·sodium S-3-hydroxypentanoate complex of Example 67, […]

Compound	Stability
CCC(O)CC(=O)O.CCC(O)CC(=O)[O-].[Na+] (centres unmarked) [3-hydroxypentanoic acid·sodium 3-hydroxypentanoate]	unchanged
CC[C@@H](O)CC(=O)O.CC[C@@H](O)CC(=O)[O-].[Na+] [R-3-hydroxypentanoic acid·sodium R-3-hydroxypentanoate]	unchanged

same assay, conditions: 30° C.

Compound	Stability
CC(O)CC(=O)O.CC(O)CC(=O)[O-].CC(O)CC(=O)[O-].[Mg+2] (centres unmarked) [3-hydroxybutyric acid·magnesium 3-hydroxybutyrate]	unchanged
CC(O)CC(=O)O.CC(O)CC(=O)[O-].[K+] (centres unmarked) [3-hydroxybutyric acid·potassium 3-hydroxybutyrate]	unchanged

same assay, conditions: 40° C.

Compound	Stability
CC(O)CC(=O)O.CC(O)CC(=O)[O-].CC(O)CC(=O)[O-].[Mg+2] (centres unmarked) [3-hydroxybutyric acid·magnesium 3-hydroxybutyrate]	unchanged
CC(O)CC(=O)O.CC(O)CC(=O)[O-].[K+] (centres unmarked) [3-hydroxybutyric acid·potassium 3-hydroxybutyrate]	unchanged

same assay, conditions: 50° C.

Compound	Stability
CC(O)CC(=O)O.CC(O)CC(=O)[O-].CC(O)CC(=O)[O-].[Mg+2] (centres unmarked) [3-hydroxybutyric acid·magnesium 3-hydroxybutyrate]	unchanged
CC(O)CC(=O)O.CC(O)CC(=O)[O-].[K+] (centres unmarked) [3-hydroxybutyric acid·potassium 3-hydroxybutyrate]	Unchanged

same assay, conditions: 60° C.

Compound	Stability
CC(O)CC(=O)O.CC(O)CC(=O)[O-].CC(O)CC(=O)[O-].[Mg+2] (centres unmarked) [3-hydroxybutyric acid·magnesium 3-hydroxybutyrate]	Unchanged
CC(O)CC(=O)O.CC(O)CC(=O)[O-].[K+] (centres unmarked) [3-hydroxybutyric acid·potassium 3-hydroxybutyrate]	unchanged

same assay, conditions: 80° C.

Compound	Stability
CC(O)CC(=O)O.CC(O)CC(=O)[O-].CC(O)CC(=O)[O-].[Mg+2] (centres unmarked) [3-hydroxybutyric acid·magnesium 3-hydroxybutyrate]	melted
CC(O)CC(=O)O.CC(O)CC(=O)[O-].[K+] (centres unmarked) [3-hydroxybutyric acid·potassium 3-hydroxybutyrate]	melted

assay: Determination of moisture contents with KF moisture meter at different time points; type: physicochemical; details: temperature 23° C., humidity 92.5%, 30 min
Source text: For R-3-hydroxybutyric acid, potassium R-3-hydroxybutyrate, mixture of R-3-hydroxybutyric acid and potassium R-3-hydroxybutyrate, and R-3-hydroxybutyric acid·potassium R-3-hydroxybutyrate complex of Example 1, under a certain condition, KF moisture meter was used to determine the moisture contents at different time points.
For 3-hydroxybutyric acid, potassium 3-hydroxybutyrate, mixture of 3-hydroxybutyric acid and potassium 3-hydroxybutyrate, and 3-hydroxybutyric acid·potassium 3-hydroxybutyrate complex of Example 7, under a certain condition, KF moisture meter was used to determine the moisture contents at different time points.
For S-3-hydroxybutyric acid, potassium S-3-hydroxybutyrate, mixture of S-3-hydroxybutyric acid and potassium S-3-hydroxybutyrate, and S-3-hydroxybutyric acid·potassium S-3-hydroxybutyrate complex of Example 13, under a certain condition, KF moisture meter was used to determine the moisture contents at different time points.
For R-3-hydroxybutyric acid, calcium R-3-hydroxybutyrate, mixture of R-3-hydroxybutyric acid and calcium R-3-hydroxybutyrate, and R-3-hydroxybutyric acid·calcium R-3-hydroxybutyrate complex of Example 19, under a certain condition, KF moisture meter was used to determine the moisture contents at different time points.
For 3-hydroxybutyric acid, calcium 3-hydroxybutyrate, mixture of 3-hydroxybutyric acid and calcium 3-hydroxybutyrate, and 3-hydroxybutyric acid·calcium 3-hydroxybutyrate complex of Example 25, under a certain condition, KF moisture meter was used to determine the moisture contents at different time points.
For S-3-hydroxybutyric acid, calcium S-3-hydroxybutyrate, mixture of S-3-hydroxybutyric acid and calcium S-3-hydroxybutyrate, and S-3-hydroxybutyric acid·calcium S-3-hydroxybutyrate complex of Example 31, under a certain condition, KF moisture meter was used to determine the moisture contents at different time points.
For R-3-hydroxybutyric acid, magnesium R-3-hydroxybutyrate, mixture of R-3-hydroxybutyric acid and magnesium R-3-hydroxybutyrate, and R-3-hydroxybutyric acid·magnesium R-3-hydroxybutyrate complex of Example 37, under a certain condition, KF moisture meter was used to determine the moisture contents at different time points.
For 3-hydroxybutyric acid, magnesium 3-hydroxybutyrate, mixture of 3-hydroxybutyric acid and magnesium 3-hydroxybutyrate, and 3-hydroxybutyric acid·magnesium 3-hydroxy butyrate complex of Example 43, under a certain condition, KF moisture meter was used to determine the moisture contents at different time points.
For S-3-hydroxybutyric acid, magnesium S-3-hydroxybutyrate, mixture of S-3-hydroxybutyric acid and magnesium S-3-hydroxybutyrate, and S-3-hydroxybutyric acid·magnesium S-3-hydroxybutyrate complex of Example 49, under a certain condition, KF moisture meter was used to determine the moisture contents at different time points.
For R-3-hydroxypentanoic acid, sodium R-3-hydroxypentanoate, mixture of R-3-hydroxypentanoic acid and sodium R-3-hydroxypentanoate, and R-3-hydroxypentanoic acid·sodium R-3-hydroxypentanoate complex of Example 55, under a certain condition, KF moisture meter was used to determine the moisture contents at different time points.
For 3-hydroxypentanoic acid, sodium 3-hydroxypentanoate, mixture of 3-hydroxypentanoic acid and sodium 3-hydroxypentanoate, and 3-hydroxypentanoic acid·sodium 3-hydroxypentanoate complex of Example 61, under a certain condition, KF moisture meter was used to determine the moisture contents at different time points.
For S-3-hydroxypentanoic acid, sodium S-3-hydroxypentanoate, mixture of S-3-hydroxypentanoic acid and sodium S-3-hydroxypentanoate, and S-3-hydroxypentanoic acid·sodium S-3-hydroxypentanoate complex of Example 67, under a certain condition, KF moisture meter was used to determine the moisture contents at different time points.

Compound	moisture content (%)
CC(O)CC(=O)O.CC(O)CC(=O)[O-].CC(O)CC(=O)[O-].[Mg+2] (centres unmarked) [3-hydroxybutyric acid·magnesium 3-hydroxybutyrate]	0.56
CC(O)CC(=O)O.CC(O)CC(=O)[O-].[K+] (centres unmarked) [3-hydroxybutyric acid·potassium 3-hydroxybutyrate]	0.68
CCC(O)CC(=O)O.CCC(O)CC(=O)[O-].[Na+] (centres unmarked) [3-hydroxypentanoic acid·sodium 3-hydroxypentanoate]	0.51
CC[C@@H](O)CC(=O)O.CC[C@@H](O)CC(=O)[O-].[Na+] [R-3-hydroxypentanoic acid·sodium R-3-hydroxypentanoate]	0.45

same assay, conditions: temperature 23° C., humidity 92.5%, 1 h

Compound	moisture content (%)
CC(O)CC(=O)O.CC(O)CC(=O)[O-].CC(O)CC(=O)[O-].[Mg+2] (centres unmarked) [3-hydroxybutyric acid·magnesium 3-hydroxybutyrate]	0.97
CC(O)CC(=O)O.CC(O)CC(=O)[O-].[K+] (centres unmarked) [3-hydroxybutyric acid·potassium 3-hydroxybutyrate]	1.28
CCC(O)CC(=O)O.CCC(O)CC(=O)[O-].[Na+] (centres unmarked) [3-hydroxypentanoic acid·sodium 3-hydroxypentanoate]	0.98
CC[C@@H](O)CC(=O)O.CC[C@@H](O)CC(=O)[O-].[Na+] [R-3-hydroxypentanoic acid·sodium R-3-hydroxypentanoate]	0.85

same assay, conditions: temperature 23° C., humidity 92.5%, 2 h

Compound	moisture content (%)
CC(O)CC(=O)O.CC(O)CC(=O)[O-].CC(O)CC(=O)[O-].[Mg+2] (centres unmarked) [3-hydroxybutyric acid·magnesium 3-hydroxybutyrate]	1.82
CC(O)CC(=O)O.CC(O)CC(=O)[O-].[K+] (centres unmarked) [3-hydroxybutyric acid·potassium 3-hydroxybutyrate]	1.93
CCC(O)CC(=O)O.CCC(O)CC(=O)[O-].[Na+] (centres unmarked) [3-hydroxypentanoic acid·sodium 3-hydroxypentanoate]	1.71
CC[C@@H](O)CC(=O)O.CC[C@@H](O)CC(=O)[O-].[Na+] [R-3-hydroxypentanoic acid·sodium R-3-hydroxypentanoate]	1.63

same assay, conditions: temperature 23° C., humidity 92.5%, 4 h

Compound	moisture content (%)
CC(O)CC(=O)O.CC(O)CC(=O)[O-].CC(O)CC(=O)[O-].[Mg+2] (centres unmarked) [3-hydroxybutyric acid·magnesium 3-hydroxybutyrate]	3.26
CC(O)CC(=O)O.CC(O)CC(=O)[O-].[K+] (centres unmarked) [3-hydroxybutyric acid·potassium 3-hydroxybutyrate]	3.68
CCC(O)CC(=O)O.CCC(O)CC(=O)[O-].[Na+] (centres unmarked) [3-hydroxypentanoic acid·sodium 3-hydroxypentanoate]	2.82
CC[C@@H](O)CC(=O)O.CC[C@@H](O)CC(=O)[O-].[Na+] [R-3-hydroxypentanoic acid·sodium R-3-hydroxypentanoate]	2.72

same assay, conditions: temperature 23° C., humidity 92.5%, 6 h

Compound	moisture content (%)
CC(O)CC(=O)O.CC(O)CC(=O)[O-].CC(O)CC(=O)[O-].[Mg+2] (centres unmarked) [3-hydroxybutyric acid·magnesium 3-hydroxybutyrate]	4.62
CC(O)CC(=O)O.CC(O)CC(=O)[O-].[K+] (centres unmarked) [3-hydroxybutyric acid·potassium 3-hydroxybutyrate]	5.92
CCC(O)CC(=O)O.CCC(O)CC(=O)[O-].[Na+] (centres unmarked) [3-hydroxypentanoic acid·sodium 3-hydroxypentanoate]	4.16
CC[C@@H](O)CC(=O)O.CC[C@@H](O)CC(=O)[O-].[Na+] [R-3-hydroxypentanoic acid·sodium R-3-hydroxypentanoate]	4.08

same assay, conditions: temperature 23° C., humidity 92.5%, 7 h

Compound	moisture content (%)
CC(O)CC(=O)O.CC(O)CC(=O)[O-].CC(O)CC(=O)[O-].[Mg+2] (centres unmarked) [3-hydroxybutyric acid·magnesium 3-hydroxybutyrate]	5.57
CC(O)CC(=O)O.CC(O)CC(=O)[O-].[K+] (centres unmarked) [3-hydroxybutyric acid·potassium 3-hydroxybutyrate]	6.84
CCC(O)CC(=O)O.CCC(O)CC(=O)[O-].[Na+] (centres unmarked) [3-hydroxypentanoic acid·sodium 3-hydroxypentanoate]	4.60
CC[C@@H](O)CC(=O)O.CC[C@@H](O)CC(=O)[O-].[Na+] [R-3-hydroxypentanoic acid·sodium R-3-hydroxypentanoate]	4.49

same assay, conditions: temperature 23° C., humidity 92.5%, 11 h

Compound	moisture content (%)
CC(O)CC(=O)O.CC(O)CC(=O)[O-].CC(O)CC(=O)[O-].[Mg+2] (centres unmarked) [3-hydroxybutyric acid·magnesium 3-hydroxybutyrate]	8.75
CC(O)CC(=O)O.CC(O)CC(=O)[O-].[K+] (centres unmarked) [3-hydroxybutyric acid·potassium 3-hydroxybutyrate]	9.67
CCC(O)CC(=O)O.CCC(O)CC(=O)[O-].[Na+] (centres unmarked) [3-hydroxypentanoic acid·sodium 3-hydroxypentanoate]	7.28
CC[C@@H](O)CC(=O)O.CC[C@@H](O)CC(=O)[O-].[Na+] [R-3-hydroxypentanoic acid·sodium R-3-hydroxypentanoate]	7.21

same assay, conditions: temperature 23° C., humidity 92.5%, 22 h

Compound	moisture content (%)
CC(O)CC(=O)O.CC(O)CC(=O)[O-].CC(O)CC(=O)[O-].[Mg+2] (centres unmarked) [3-hydroxybutyric acid·magnesium 3-hydroxybutyrate]	14.68
CC(O)CC(=O)O.CC(O)CC(=O)[O-].[K+] (centres unmarked) [3-hydroxybutyric acid·potassium 3-hydroxybutyrate]	19.25
CCC(O)CC(=O)O.CCC(O)CC(=O)[O-].[Na+] (centres unmarked) [3-hydroxypentanoic acid·sodium 3-hydroxypentanoate]	14.69
CC[C@@H](O)CC(=O)O.CC[C@@H](O)CC(=O)[O-].[Na+] [R-3-hydroxypentanoic acid·sodium R-3-hydroxypentanoate]	14.54
